Experimental data from patent US20240424019A1, “SHP1 MODIFIED DENDRITIC CELLS AND EXTRACELLULAR VESICLES DERIVED THEREFROM AND ASSOCIATED METHODS” (BOARD OF REGENTS, THE UNIVERSITY OF TEXAS SYSTEM, priority 2021, published 2024).

Test system: CD8+ OT-1 T cells
Assay: DC-EV in vitro assays (H-2Kb-SIINFEKL on EVs, binding to CD8+ T cells, OT-1 proliferation, IFN-γ ELISA)
Type: cell-based, mouse
Conditions: EVs of OVA-loaded BMDCs treated with VitE vs vehicle
Protocol: To generate DC-EVs, BMDCs or DC2.4 were cultured at a density of 2×10^6 cells/ml and treated with LPS (100 ng/ml) for 18 h and then treated with OVA protein (250 μg/ml) for 24 hours in DCs culture media supplemented with 10% exosome depleted FBS, which is prepared by the first ultracentrifugation at 100,000 g for 16 h, and then filtering using a 100 nm filter. Supernatants were collected from 48-72 h DCs cultures and EVs were purified by a standard differential ultracentrifugation. […] The purified exosomes were then analyzed and used for experimental procedures. […]
For FACS analysis, exosomes were conjugated with 4 μm aldehyde/sulfate latex beads (Cat. A37304, Thermo Fisher) by overnight incubation. The EVs-bound beads were incubated with glycine to block remaining binding sites and surface expression of SIINFEKL-loaded MHC-I complexes on DC-EVs was determined by staining with anti-mouse H-2K^b bound to SIINFEKL antibody. […]
To verify the physical interactions between DC-EVs and CD8^+ T cells, purified DC-EVs were stained with DiO (Cat. V22889, Thermo Fisher) in 100 μl PBS, and then washed with 10 ml PBS and pelleted by ultracentrifugation. For cell treatment, DC-EVs (10 μg/ml) (unless specified otherwise) were used on the basis of protein concentration determined by a BCA Protein Assay Kit (Pierce). […] After 72 h, the T-cell proliferation was analyzed by FACS. […]

For `Cc1c(C)c2c(c(C)c1O)CC[C@@](C)(CCC[C@H](C)CCC[C@H](C)CCCC(C)C)O2` [VitE, D-α-Tocopherol], which “level of H-2Kb-SIINFEKL complexes on DC-EVs” value is on record?
The value was “increased the level of H-2Kb-SIINFEKL complexes on DC-EVs”.
